The source of these data is patent US20100048727A1, “PERFLUOROKETONE COMPOUNDS AND USES THEREOF” (priority 2007, published 2010).

One data set concerns the target T1, GV sPLA2 (Homo sapiens, UniProt P39877).
T1 sequence (P39877 21-138): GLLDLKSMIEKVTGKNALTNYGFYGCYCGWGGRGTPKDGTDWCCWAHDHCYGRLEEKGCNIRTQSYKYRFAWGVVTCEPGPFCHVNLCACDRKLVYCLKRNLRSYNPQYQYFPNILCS
Briefly: GV sPLA2 activity assay (release of [14C]-palmitic acid from mixed micelles). The data set is classed as biochemical. To be noted: mean and standard error; for Average percent inhibition GV sPLA2: 0.091 mole fraction, n = 3. The method, then:
(§1) Inhibition of phospholipase A2 by perfluoroketone compounds. […] (2002) J. Med. Chem. 45: 2891-2893; Kokotos, G. et al. (2004). J. Med. Chem. 47: 3615-3628). The standard GVIA iPLA2 activity assay utilizes DPPC/Triton™ X-100 mixed micelles at a ratio of 1:4 as previously described (Stephens D. et al. (2006). J. Med. Chem., 49: 2821-2828). GV sPLA2 activity was measured in an assay similar to the assays for GIVA cPLA2 and GVIA iPLA2.

The next data set has as its target T2, GVIA iPLA2 (Homo sapiens, UniProt O60733).
T2 sequence (O60733 1-806): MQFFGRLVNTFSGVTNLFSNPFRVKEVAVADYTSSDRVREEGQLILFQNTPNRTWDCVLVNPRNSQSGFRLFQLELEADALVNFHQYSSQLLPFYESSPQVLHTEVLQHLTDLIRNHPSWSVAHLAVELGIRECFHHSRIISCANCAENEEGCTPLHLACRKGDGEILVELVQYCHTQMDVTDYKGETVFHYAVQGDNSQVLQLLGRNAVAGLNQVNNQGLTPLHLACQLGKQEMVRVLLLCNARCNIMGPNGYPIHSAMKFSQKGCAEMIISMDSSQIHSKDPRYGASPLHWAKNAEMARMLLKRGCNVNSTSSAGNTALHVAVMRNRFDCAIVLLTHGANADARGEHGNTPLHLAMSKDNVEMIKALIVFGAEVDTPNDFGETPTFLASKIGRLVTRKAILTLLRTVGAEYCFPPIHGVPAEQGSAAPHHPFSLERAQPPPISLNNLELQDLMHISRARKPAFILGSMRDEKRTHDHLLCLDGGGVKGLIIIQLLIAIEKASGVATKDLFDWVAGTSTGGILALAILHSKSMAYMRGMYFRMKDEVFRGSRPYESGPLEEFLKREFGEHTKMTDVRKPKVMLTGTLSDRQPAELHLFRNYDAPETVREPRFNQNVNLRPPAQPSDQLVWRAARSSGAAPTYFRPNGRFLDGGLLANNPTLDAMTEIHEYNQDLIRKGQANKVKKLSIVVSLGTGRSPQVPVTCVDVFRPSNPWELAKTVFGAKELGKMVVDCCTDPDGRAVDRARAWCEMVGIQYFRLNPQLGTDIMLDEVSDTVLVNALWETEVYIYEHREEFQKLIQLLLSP
Briefly: standard GVIA iPLA2 activity assay (DPPC/Triton X-100 mixed micelles). Format: biochemical. As to conditions: mean and standard error; for Average percent inhibition GVIA iPLA2: 0.091 mole fraction, n = 3; for inhibition at 0.091 mole fraction: n = 3, read-out: Average percent inhibition GVIA iPLA2. The method, then: as §1

The next data set addresses T3, human GIVA cPLA2 (Homo sapiens, UniProt P47712).
T3 sequence (P47712 1-749): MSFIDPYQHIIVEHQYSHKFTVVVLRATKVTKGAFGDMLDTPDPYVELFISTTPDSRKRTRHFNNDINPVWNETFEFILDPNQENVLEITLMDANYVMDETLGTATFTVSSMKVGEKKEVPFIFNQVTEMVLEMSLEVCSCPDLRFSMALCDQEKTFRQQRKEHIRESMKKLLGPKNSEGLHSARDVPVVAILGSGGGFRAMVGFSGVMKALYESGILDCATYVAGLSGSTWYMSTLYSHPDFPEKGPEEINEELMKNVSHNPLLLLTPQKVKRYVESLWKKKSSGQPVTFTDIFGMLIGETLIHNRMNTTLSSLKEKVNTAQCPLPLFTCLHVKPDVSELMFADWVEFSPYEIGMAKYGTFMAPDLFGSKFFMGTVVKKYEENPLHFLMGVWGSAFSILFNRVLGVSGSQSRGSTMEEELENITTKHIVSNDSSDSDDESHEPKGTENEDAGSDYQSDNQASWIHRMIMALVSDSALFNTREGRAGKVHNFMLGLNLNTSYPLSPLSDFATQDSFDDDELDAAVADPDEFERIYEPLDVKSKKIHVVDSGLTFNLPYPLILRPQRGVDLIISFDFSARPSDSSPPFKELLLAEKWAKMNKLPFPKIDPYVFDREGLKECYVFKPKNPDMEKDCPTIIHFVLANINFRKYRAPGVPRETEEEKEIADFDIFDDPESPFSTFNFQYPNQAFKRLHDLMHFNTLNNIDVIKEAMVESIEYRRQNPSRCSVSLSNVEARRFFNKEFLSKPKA
Briefly: GIVA cPLA2 specific mixed micelle assay. The data set is classed as biochemical. To be noted: mean and standard error; for Average percent inhibition GIVA cPLA2: 0.091 mole fraction, n = 3. The method, then: as §1

The test system of another data set is EAE-induced SJL/J mice. Briefly: Clinical course of EAE in SJL/J mice treated with fluoroketone compounds. Format: in vivo.

The term inhibition denotes the percentage by which the read-out fell short of the control. Usually melting point stands for the temperature of the solid-liquid transition.

The structures appear in SMILES notation.

Consider `CCCCCCOc1ccc(CCC(=O)C(F)(F)F)cc1` [FKGK1, 1,1,1-Trifluoro-4-(4-hexyloxy-phenyl)-2-butanone], for which, on GV sPLA2, the “Average percent inhibition GV sPLA2” value is 82 ± 8%. Moreover, the “Average percent inhibition GVIA iPLA2” value at GVIA iPLA2 came to 85 ± 4%. On human GIVA cPLA2, the “Average percent inhibition GIVA cPLA2” value was 91 ± 2%.
For the molecule `O=C(CCCCCc1ccccc1)C(F)(F)C(F)(F)F` [FKGK12, 1,1,1,2,2-Pentafluoro-8-phenyl-3-octanone], the “Average percent inhibition GV sPLA2” value at GV sPLA2 turned out to be 46 ± 8%. Further, the “Average percent inhibition GVIA iPLA2” value on GVIA iPLA2 is given as 98 ± 5%. The “Average percent inhibition GIVA cPLA2” value at human GIVA cPLA2 is on record as 56 ± 4%.
Regarding `CCCCCCCCCCCCCCC(F)C(=O)C(F)(F)F` (stereo not drawn) [FKGK8, 1,1,1,3-Tetrafluoro-2-heptadecanone], the “Average percent inhibition GV sPLA2” value at GV sPLA2 is recorded as 86 ± 10%. Moreover, at GVIA iPLA2, the “Average percent inhibition GVIA iPLA2” value is recorded as 93 ± 4%. Moreover, the “Average percent inhibition GIVA cPLA2” value on human GIVA cPLA2 was determined as 94 ± 2%.
With `CCCCCCOc1ccc(CCC(=O)C(F)(F)C(F)(F)F)cc1` [FKGK14, 1,1,1,2,2-Pentafluoro-5-(4-hexyloxy-phenyl)-3-pentanone], on GV sPLA2, the “Average percent inhibition GV sPLA2” value was found to be 86 ± 4%. In addition, the “Average percent inhibition GVIA iPLA2” value at GVIA iPLA2 was found to be 95 ± 5%. Further, the “Average percent inhibition GIVA cPLA2” value on human GIVA cPLA2 was 73 ± 4%.
Regarding `O=C(C(F)(F)F)C(F)(F)CCCc1ccccc1` [FKGK7, 1,1,1,3,3-Pentafluoro-6-phenyl-hexan-2-one], the inhibition at 0.091 mole fraction at GV sPLA2 (n = 3, read-out: Average percent inhibition GV sPLA2) came out at 59 ± 12%; on GVIA iPLA2 it was 49 ± 12%; on human GIVA cPLA2 (n = 3, read-out: Average percent inhibition GIVA cPLA2), 27 ± 3%.
Consider `O=C(CCCCCCc1ccccc1)C(F)(F)C(F)(F)F` [FKGK13, 1,1,1,2,2-Pentafluoro-9-phenyl-3-nonanone], for which the “Average percent inhibition GV sPLA2” value at GV sPLA2 is given as 75 ± 10%. The “Average percent inhibition GVIA iPLA2” value on GVIA iPLA2 is 98 ± 4%. In addition, at human GIVA cPLA2, the “Average percent inhibition GIVA cPLA2” value stood at 65 ± 12%.
Consider `CCCCCCCCCCOc1ccc(CCC(=O)C(F)(F)F)cc1` [FKGK3, 1,1,1-Trifluoro-4-(4-decyloxy-phenyl)-2-butanone], for which the “Average percent inhibition GV sPLA2” value at GV sPLA2 came out at 80 ± 6%. The “Average percent inhibition GVIA iPLA2” value at GVIA iPLA2 is listed as 94 ± 8%. The “Average percent inhibition GIVA cPLA2” value on human GIVA cPLA2 was 96 ± 2%.
Regarding `CCCCCCOc1ccc(CCCCC(=O)C(F)(F)F)cc1` [FKGK2, 1,1,1-Trifluoro-6-(4hexyloxy-phenyl)-2-hexanone], on GV sPLA2, the “Average percent inhibition GV sPLA2” value turned out to be 86 ± 2%. Also, at GVIA iPLA2, the “Average percent inhibition GVIA iPLA2” value is recorded as 91 ± 4%. For the same molecule, at human GIVA cPLA2, the “Average percent inhibition GIVA cPLA2” value was determined as 92 ± 3%. In addition, the “severity and progression of the disease (EAE)” value with EAE-induced SJL/J mice (delayed treatment from day 11 after immunization, 2 weeks, i.p., vs vehicle) is given as “did not show any significant improvement”. Moreover, in the data set with EAE-induced SJL/J mice (treatment before onset of symptoms, daily for 3 weeks from day 6, course until day 40, 5-point scale), the “maximum clinical disability score” value is recorded as “around 0.5 grade”.
Regarding `CCCCCCCCCCOc1ccc(CCCCC(=O)C(F)(F)F)cc1` [FKGK4, 1,1,1-Trifluoro-6-(4-decyloxy-phenyl)-2-hexanone], on GV sPLA2, the “Average percent inhibition GV sPLA2” value turned out to be 84 ± 7%. Besides, the inhibition at 0.091 mole fraction at GVIA iPLA2 came to 94 ± 8%. Also, at human GIVA cPLA2, the “Average percent inhibition GIVA cPLA2” value is listed as 95 ± 2%.
In the case of `O=C(CCc1ccc(OCc2ccccc2)cc1)C(F)(F)F` [FKGK5, 1,1,1-Trifluoro-4-(4-benzyloxy-phenyl)-2-butanone], the melting point is 71 to 72 °C. Also, at GV sPLA2, the “Average percent inhibition GV sPLA2” value is listed as 49 ± 12%. The “Average percent inhibition GVIA iPLA2” value on GVIA iPLA2 is listed as 71 ± 14%. The “Average percent inhibition GIVA cPLA2” value at human GIVA cPLA2 was 88 ± 1%.
